Laboratory results from PubChem BioAssay (NCI).
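Assay format: 96-well plates, 48-hour exposure. GI50 marks 50% less growth. Definition used: TGI = concentration required for complete inhibition of growth.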

Key:
Assay in all cases: NCI-60 cell line screen, 48 h
LOX IMVI melanoma = tested on: LOX IMVI melanoma
NCI-H226 lung = tested on: NCI-H226 lung
HCT-15 colon = tested on: HCT-15 colon
SW-620 colon = tested on: SW-620 colon
SK-MEL-28 melanoma = tested on: SK-MEL-28 melanoma
NCI-H522 lung = tested on: NCI-H522 lung
UACC-257 melanoma = tested on: UACC-257 melanoma
DU-145 prostate = tested on: DU-145 prostate
MDA-MB-231 breast = tested on: MDA-MB-231 breast
PC-3 prostate = tested on: PC-3 prostate

Compound | TGI (LOX IMVI melanoma) [µM] | TGI (NCI-H226 lung) [µM] | TGI (HCT-15 colon) [µM] | TGI (SW-620 colon) [µM] | TGI (SK-MEL-28 melanoma) [µM] | TGI (NCI-H522 lung) [µM] | TGI (UACC-257 melanoma) [µM] | GI50 (LOX IMVI melanoma) [µM] | GI50 (DU-145 prostate) [µM] | TGI (DU-145 prostate) [µM] | GI50 (NCI-H226 lung) [µM] | GI50 (MDA-MB-231 breast) [µM] | TGI (MDA-MB-231 breast) [µM] | GI50 (HCT-15 colon) [µM] | GI50 (SW-620 colon) [µM] | GI50 (SK-MEL-28 melanoma) [µM] | GI50 (PC-3 prostate) [µM] | TGI (PC-3 prostate) [µM] | GI50 (NCI-H522 lung) [µM] | GI50 (UACC-257 melanoma) [µM]
CC1=C(C(=O)Nc2ccccc2C)C(c2ccc(Cl)c(Cl)c2)C(C(=O)Nc2ccccc2C)=C(C)N1 | 37.5 | 43.8 | 47.2 | > 100 | 71.1 | 29.1 | 50.7 | – | – | – | – | – | – | – | – | – | – | – | – | –
C=C1C(=O)O[C@H]2[C@H]1CC/C(CNC(=O)c1cc3cc(OC)ccc3[nH]1)=C\CC[C@@]1(C)O[C@@H]21 | 2.67 | 4.6 | 2.23 | 2.77 | 4.23 | 2.55 | – | 1.36 | 1.21 | 2.78 | 1.71 | 1.71 | 4.49 | 0.825 | 1.15 | 1.62 | 1.86 | 4.04 | 0.7 | –
O=C1c2ccccc2-c2cccc3ccc(Cc4ccc5ccccc5c4)c1c23 | – | – | > 100 | > 100 | > 100 | > 100 | > 100 | – | – | – | – | – | – | – | – | – | – | – | – | –
O=S(=O)(N/N=C/c1ccc(/C=N/NS(=O)(=O)c2ccccc2)cc1)c1ccccc1 | 51 | > 100 | > 100 | – | > 100 | – | > 100 | – | – | – | – | – | – | – | – | – | – | – | – | –
CCN(CC)CCC(=O)NC1c2ccc(Cl)cc2Oc2c(C)cccc21 (configuration not stated) | 29.1 | – | 34.6 | 33.2 | 27.9 | 31.6 | 31.6 | – | – | 32.9 | – | – | 40.8 | – | – | – | – | 26.7 | – | –
CC(=O)Nc1ccc(C(=O)NN2C(=O)C(Cl)C2c2ccc(Cl)cc2)cc1 (configuration not stated) | – | > 92.1 | > 100 | > 100 | > 100 | > 100 | > 100 | – | – | > 100 | – | – | 70.3 | – | – | – | – | > 100 | – | –
COC(=O)C1C(C(=O)OC)C2(OC)c3ccccc3-c3ccccc3C12 (configuration not stated) | > 100 | > 100 | > 100 | > 100 | > 100 | 88.8 | > 100 | – | – | – | – | – | – | – | – | – | – | – | – | –
CCOC(=O)NC(=O)c1cn(CC(=O)NCC(=O)NCC(=O)NCCCN2CCN(CCCNC(=O)CNC(=O)CNC(=O)Cn3cc(C(=O)NC(=O)OCC)c(=O)[nH]c3=O)CC2)c(=O)[nH]c1=O | > 100 | – | > 100 | > 100 | > 100 | > 100 | > 100 | – | – | – | – | – | – | – | – | – | – | – | – | –
COc1c2nc(CCl)[nH]c(=O)c2c(OC)c2nc(CCl)[nH]c(=O)c12 | > 100 | > 100 | > 100 | > 100 | > 100 | > 100 | > 100 | – | – | – | – | – | – | – | – | – | – | – | – | –
CC(C)CS(=O)(=O)/C(=C(\c1ccc(Br)cc1)S(=O)(=O)CC(C)C)c1ccc(Br)cc1 | > 100 | > 100 | > 100 | > 100 | > 100 | > 100 | > 100 | – | – | – | – | – | – | – | – | – | – | – | – | –
CC(O)c1cccc(NCc2c3ccccc3c(=O)n3c2oc2ccccc23)c1 (configuration not stated) | 36 | – | 28.8 | > 100 | 35.6 | 45.1 | 47.7 | 8.02 | 5.46 | > 100 | – | 13.3 | 47.9 | 5.56 | 13.6 | 6 | 7.11 | > 100 | 5.55 | 8.24
C[C@]12C[C@H](c3ccccc3)Nc3ccccc3N1C(c1ccccc1)=NO2 | – | > 100 | > 100 | > 100 | – | > 100 | > 100 | – | – | > 100 | – | – | > 100 | – | – | – | – | > 100 | – | –
Cc1c(NC(=O)C(C)(C)Br)c(=O)oc2c(C)c3occc(=O)c3cc12 | > 100 | 71.9 | > 100 | > 100 | > 100 | – | > 100 | – | – | – | – | – | – | – | – | – | – | – | – | –
Cc1cc(Cl)ccc1NC(=O)CCCC(=O)C1CCCC1=O (configuration not stated) | > 100 | > 100 | > 100 | > 100 | – | > 100 | > 100 | – | – | – | – | – | – | – | – | – | – | – | – | –
CC(=O)c1cccc(N2COC(C)(C)c3nc4ccccc4n3C2)c1 | > 100 | > 100 | > 100 | > 100 | > 100 | > 100 | > 100 | – | – | – | – | – | – | – | – | – | – | – | – | –
CC/C(C)=C1\CCC(CN2CCOCC2)C1=O (configuration not stated) | 30.5 | > 100 | 26.5 | 34.5 | 32 | – | 31.5 | – | – | – | – | – | – | – | – | – | – | – | – | –
CC1(C)C2CCC3=C(CCC4(C)C5C[C@](C)(C(=O)O)CC[C@]5(C)CC[C@]34C)[C@@]2(C)CC[C@@H]1O (some centres not stated) | 31.2 | 67.9 | 37.7 | 32.3 | 33.7 | 40.8 | – | – | – | 34.5 | – | – | 33.8 | – | – | – | – | 29.1 | – | –
CC(=O)OCC1OC(N2C(=O)C(=O)c3cc(C)ccc32)C(OC(C)=O)C(OC(C)=O)C1OC(C)=O (configuration not stated) | 34.3 | > 100 | > 100 | > 100 | 91.8 | > 100 | > 100 | – | – | – | – | – | – | – | – | – | – | – | – | –
O=[N+]([O-])c1cc(Cl)c(Cl)c([N+](=O)[O-])c1Cl | 1.11 | 7.16 | 2.84 | 3.36 | 3.14 | – | 3.08 | 0.299 | 1.63 | 2.99 | 2.61 | 1.81 | 3.79 | 1 | 0.763 | 1.74 | 1.81 | 3.57 | – | 1.56
O=[N+]([O-])c1cccc(/C=N\NS(=O)(=O)c2ccc(Cl)cc2)c1O | > 100 | – | > 100 | > 100 | > 100 | > 100 | > 100 | – | – | – | – | – | – | – | – | – | – | – | – | –
COc1ccc(NC(=O)C(=O)C(C(=O)c2ccccc2)C2OC(=O)c3ccccc32)c([N+](=O)[O-])c1 (configuration not stated) | > 100 | > 100 | > 100 | > 100 | > 100 | > 100 | > 100 | – | – | – | – | – | – | – | – | – | – | – | – | –
CCOC(=O)C(N)C[S][Sn]([CH3])([CH3])[Cl] (configuration not stated) | > 100 | > 100 | > 100 | > 100 | > 100 | 38.4 | > 100 | 37 | – | – | > 100 | – | – | > 79.1 | > 100 | > 100 | – | – | 18.4 | > 100
